According to patent publication US20250351820A1, “SUPRAMOLECULAR POROUS ORGANIC FRAMEWORKS FOR STORAGE AND DELIVERY OF VOLATILE GUESTS” (KANSAS STATE UNIVERSITY RESEARCH FOUNDATION, priority 2022, published 2025):

Type: physicochemical
Description: In one approach, the HOF encapsulated guest was prepared by dissolving trimesic acid and guest in methanol a 1:8 molar ratio. The mixture was stirred at room temperature for up to 48 hours. The solution was then left undisturbed allowing for slow evaporation to take place until crystals were obtained. For particularly oily guest molecules, an additional solvent was required to dissolve trimesic acid. Successful guest uptake was confirmed by single crystal X-ray diffraction (SCXRD). Thermogravimetric analysis was used to monitor the weight loss as a function of temperature, and ^1H NMR was used to confirm the presence of both host and guest in the sample.
In order to determine to what extent a particular guest is included within the host structure, we carried out thermal gravimetric analysis (TGA) on the resulting samples. A typical TGA measurement will record the weight-loss as a function of temperature and this will allow us to estimate the relative amount of solvent/guest/host present in a particular sample. […] The host itself begins to thermally degrade at around 250° C.

temperature at which the host begins to thermally degrade: around 250 °C
SMILES: O=C(O)c1cc(C(=O)O)cc(C(=O)O)c1 [trimesic acid]
